Measured values reported in US8535740B2, “Compositions from Nigella sativa” (priority 2002, dated 2013).

Assays:
[1] = tested on: adiponectin secretion in 3T3-L1 adipocytes; test: Adiponectin secretion in t10-CLA-stimulated 3T3-L1 adipocytes; format: cell-based, murine
Procedure: Treatment—Test materials were added four hours prior to the addition of t10-CLA at a concentration of 50 μM. Following overnight incubation, the supernatant media were sampled for determination of IL-6 and adiponectin. Adiponectin assay—The adiponectin secreted into the medium was quantified using the Mouse Adiponectin Quantikine® Immunoassay kit with no modifications (R&D Systems, Minneapolis, Minn.). […] Statistical Calculations and Interpretation—Test materials and were assayed in duplicate, while solvent controls were replicated eight times. IL-6 and adiponectin secretion were represented relative to the IL-6 and adiponectin secretion of the t10-CLA only controls as the IL-6 and adiponectin index and differences among the means were analyzed by the student's t-test assuming a five percent probability of a type I error (Excel; Microsoft, Redmond, Wash.).

[2] = tested on: IL-6 secretion in 3T3-L1 adipocytes; test: IL-6 secretion in t10-CLA-stimulated 3T3-L1 adipocytes; format: cell-based, murine
Procedure: Treatment—Test materials were added four hours prior to the addition of t10-CLA at a concentration of 50 μM. Following overnight incubation, the supernatant media were sampled for determination of IL-6 and adiponectin. Interleukin-6 assay—The IL-6 secreted into the medium in response to […] stimulation was quantified using the Quantikine® Mouse IL-6 Immunoassay kit with no modifications (R&D Systems, Minneapolis, Minn.). […] All supernatant media samples were diluted 1:30 for quantification. Statistical Calculations and Interpretation—Test materials and were assayed in duplicate, while solvent controls were replicated eight times. IL-6 and adiponectin secretion were represented relative to the IL-6 and adiponectin secretion of the t10-CLA only controls as the IL-6 and adiponectin index and differences among the means were analyzed by the student's t-test assuming a five percent probability of a type I error (Excel; Microsoft, Redmond, Wash.).

Caco-2 monolayers = test: t10-CLA-induced loss of transepithelial electrical resistance in Caco-2 monolayers; format: cell-based, human; details: 50 μM t10-CLA stimulus, positive control set to 100; each material at its tabulated concentration (TQ 5.0, NS8 0.11, NS9 0.99, NS10 0.012, NSSpent#2 0.0005 μg TQ equivalents/mL; Spent#1 5 μg/mL)
Description: Caco-2 Cells-The protocol for growing and differentiation the human Caco-2 colon andenocarcinoma cells was a modification of Protocol 3 as described by Yamashita et al. [[…]., and Furuyama, Y. (2002) New and better protocols for a short-term Caco-2 cell culture system, J Pharm Sci 91, 669-679]. Caco-2 Human Colon Adenocarcinoma cells were obtained from ATCC (Rockville, Md.; catalog #HTB-37) and maintained in a growth media: DMEM (Dulbecco's Modified Eagles Medium 1×) containing L-glutamine, glucose; Cellgro catalog #35-010CV with the following additions: (1) Penicillin (5,000 IU/mL)/Streptomycin (5,000 μg/mL) Cellgro catalog #30-001C1, (2) 10% FBS-Fetal Bovine Serum, Characterized; Hyclone catalog #SH30071.3, and (3) 1% NEAA-Non Essential Amino Acids; Cellgro catalog #25-025-CI; cells were cultured at 37 C in a humidified air-5% CO2 atmosphere in T175 flasks. Differentiation of Caco-2 cells to intestinal epithelial cells-BIOCOAT^R HTS Caco-2 Assay System kits (Becton Dickinson, N.J.; catalog #354801) consisting of 24-well fibrillar collagen coated inserts and feeder trays were used in all experiments and plated as follows. Media was removed from the T175 flasks and cells were washed with 10 mLs PBS (phosphate buffered saline 1× without Ca^++, without Mg^++; Cellgro #25-053-CI). PBS was removed and 5 mL of Trypsin/EDTA (1×, 0.25% Trypsin/2.21 mM EDTA in HBSS; Cellgro #25-053-CI) were added to the flask and the flask placed at 37 C until cells were visibly floating, approximately 3-5 minutes. Five mL of growth media were added to the flask to neutralize the trypsin. This solution was then transferred to a sterile 50 mL tube. Eight μL were sampled and placed in a hemocytometer for counting under a microscope. Five-hundred μL of cell solution were placed in the upper chamber of each insert so that the final density per well was at least 6.6×10^5 cells/cm^2. Thirty-five mL of growth media were then added to the feeder tray and plate incubated at 37 C with 5% CO2 and 100% humidity for 20-24 hours. […]

AMPK = AMPK activation (pT172-AMPK) in C2C12 myocytes; format: cell-based, mouse; details: 1 mM
Procedure: Cell culture—Mouse C2C12 myoblasts were obtained from American Type Culture Collection (Manassas, Va.), and were maintained in Dulbecco's modified Eagle's medium (DMEM) supplemented with 10% fetal bovine serum at 37° C. under a humidified atmosphere of 5% CO2.
C2C12 cells were seeded at an initial density of 6×10^4 cells/cm^2 in 24-well plates. For two days, the cells were allowed grow to reach confluence. Following confluence, the cells were forced to differentiate into myocytes by culturing in DMEM supplemented with 2% horse serum for seven days.
Treatment—On Day 8 to 10 post differentiation, C2C12 myocytes were incubated in serum-free DMEM plus 0.5% BSA (bovine serum albumin) for three hours. […]
Measuring activated AMPKa—pT^172-AMPK was quantified using the Biosource AMPK Immunoassay Kit (Camarillo, Calif.) without modification. Protein content of the cell lysates was determined with the Active Motif fluorescent protein assay reagent (Carlsbad Calif., Hoefelschweiger, B. K., Duerkop, A., and Wolfbeis, O. S. Novel type of general protein assay using a chromogenic and fluorogenic amine-reactive probe. Anal Biochem 2005, 344, 122-9). A Packard Fluorocount spectrofluorometer (Model #BF 10000, Meridan, Conn.) was used for protein determination and a MEL312e BIO-KINETICS READER (Bio-Tek Instruments, Winooski, Vt.) was used for quantification of pT^172-AMPK. […]

[3] = relative to t10-CLA only control (100), 50 μM t10-CLA, overnight, each material at its tabulated concentration

SMILES	reduction in adiponectin secretion relative to controls ([1]; 50 μM)	Adiponectin Index [1, 3]	increase in IL-6 secretion relative to controls ([2]; 50 μM)	IL-6 Index [2, 3]	Relative Loss of TEER (Caco-2 monolayers)	increase in pT172-AMPK relative to DMSO negative controls (AMPK; average over ten independent assays, 95% CI=1.26-2.21)	AMPK activation (AMPK; in assays run with N. sativa supercritical CO2 extracts)
CCCCC/C=C\C=C\CCCCCCCCC(=O)O [t10-CLA, trans-10, cis12-Conjugated Linoleic Acid]	65%	100 ± 14	8 fold	100 ± 11	100 ± 5.81	–	–
NC(=O)c1ncn([C@@H]2O[C@H](CO)[C@@H](O)[C@H]2O)c1N [AICAR, 5-Aminoimidazole-4-carboxamide ribonucleoside]	–	–	–	–	–	1.67 fold	1.45 fold
